Laboratory results published in PubChem BioAssay (NCI).
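Following 48 hours of exposure in 96-well plates, responses at five concentrations were used to interpolate endpoints linearly. GI50: concentration for 50% inhibition of growth. TGI: concentration producing complete growth inhibition.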

Experiments:
Assay in all cases: growth of human tumour cells (NCI), 48 h
[1] = tested on: KM20L2 colon
[2] = tested on: HCT-15 colon
[3] = tested on: 786-0 renal
[4] = tested on: NCI-H460 lung
[5] = tested on: LOX IMVI melanoma
[6] = tested on: KM12 colon
[7] = tested on: SK-MEL-28 melanoma
[8] = tested on: SF-295 CNS
[9] = tested on: IGROV1 ovarian
[10] = tested on: TK-10 renal
[11] = tested on: EKVX NSCLC
[12] = tested on: SNB-75 CNS
[13] = tested on: SW-620 colon
[14] = tested on: SF-268 CNS
[15] = tested on: CAKI-1 renal
[16] = tested on: UACC-257 melanoma
[17] = tested on: RXF 393 renal
[18] = tested on: M19-MEL melanoma
[19] = tested on: SNB-78 CNS
[20] = tested on: OVCAR-8 ovarian
[21] = tested on: NCI-H226 lung
[22] = tested on: OVCAR-4 ovarian
[23] = tested on: SR leukemia
[24] = tested on: RPMI-8226 leukemia
[25] = tested on: M14 melanoma
[26] = tested on: U251 CNS
[27] = tested on: HL-60(TB) leukemia
[28] = tested on: HT29 colon
[29] = tested on: UO-31 renal
[30] = tested on: OVCAR-3 ovarian
[31] = tested on: A498 renal
[32] = tested on: HOP-62 NSCLC
[33] = tested on: K-562 leukemia
[34] = tested on: XF 498 CNS
[35] = tested on: A549 NSCLC
[36] = tested on: HCT-116 colon
[37] = tested on: DMS 273 small cell lung
[38] = tested on: NCI-H522 lung
[39] = tested on: SK-MEL-5 melanoma
[40] = tested on: ACHN renal
[41] = tested on: SK-OV-3 ovarian
[42] = tested on: CCRF-CEM leukemia
[43] = tested on: SK-MEL-2 melanoma
[44] = tested on: UACC-62 melanoma
[45] = tested on: SF-539 CNS
[46] = tested on: MOLT-4 leukemia
[47] = tested on: NCI-H23 lung
[48] = tested on: SNB-19 CNS
[49] = tested on: HOP-92 NSCLC
[50] = tested on: RXF-631 renal
[51] = tested on: OVCAR-5 ovarian
[52] = tested on: LXFL 529 NSCLC
[53] = tested on: MALME-3M melanoma
[54] = tested on: DLD-1 colon
[55] = tested on: DMS 114 small cell lung
[56] = tested on: SN12C renal
[57] = tested on: COLO 205 colon
[58] = tested on: HOP-18 NSCLC
[59] = tested on: HCC-2998 colon

CCCNC(=O)Nc1c([N+](=O)[O-])cc(C(F)(F)F)cc1[N+](=O)[O-]
TGI [1]: 61.4 µM | TGI [2]: > 100 µM | TGI [3]: > 100 µM | TGI [4]: > 100 µM | TGI [5]: > 100 µM | TGI [6]: > 100 µM | TGI [7]: > 100 µM | TGI [8]: > 100 µM | TGI [9]: > 100 µM | TGI [10]: > 100 µM | TGI [11]: > 100 µM | TGI [12]: > 100 µM | TGI [13]: > 100 µM | TGI [14]: > 100 µM | TGI [15]: > 100 µM | TGI [16]: > 100 µM | TGI [17]: 76.1 µM | TGI [18]: 69.1 µM | TGI [19]: > 100 µM | TGI [20]: > 100 µM | TGI [21]: > 100 µM | TGI [22]: 73.7 µM | TGI [23]: > 100 µM | TGI [24]: > 100 µM | TGI [25]: > 100 µM | TGI [26]: > 100 µM | TGI [27]: 82.7 µM | TGI [28]: > 100 µM | TGI [29]: > 100 µM | TGI [30]: 61.2 µM | TGI [31]: > 100 µM | TGI [32]: > 100 µM | TGI [33]: > 100 µM | TGI [34]: > 100 µM | TGI [35]: > 100 µM | TGI [36]: > 100 µM | TGI [37]: > 100 µM | TGI [38]: 97.5 µM | TGI [39]: > 100 µM | TGI [40]: > 100 µM | TGI [41]: > 100 µM | TGI [42]: > 100 µM | TGI [43]: > 100 µM | TGI [44]: > 100 µM | TGI [45]: > 100 µM | TGI [46]: > 100 µM | TGI [47]: > 100 µM | TGI [48]: > 100 µM | TGI [49]: > 100 µM | TGI [50]: > 100 µM | TGI [51]: > 100 µM | TGI [52]: > 100 µM

NC(=O)c1ccc2c(c1)-c1nc-2nc2[n-]c(nc3nc(nc4[n-]c(n1)c1ccc(C(N)=O)cc41)-c1ccc(C(N)=O)cc1-3)c1ccc(C(N)=O)cc21.[Co+2]
GI50 [1]: > 50 µM | TGI [1]: > 50 µM | GI50 [2]: > 50 µM | TGI [2]: > 50 µM | GI50 [53]: > 50 µM | TGI [53]: > 50 µM | GI50 [54]: 43.5 µM | TGI [54]: > 50 µM | GI50 [3]: 19.5 µM | TGI [3]: > 50 µM | GI50 [4]: > 50 µM | TGI [4]: > 50 µM | GI50 [5]: 16.1 µM | TGI [5]: > 50 µM | GI50 [6]: > 50 µM | TGI [6]: > 50 µM | GI50 [55]: 19.6 µM | TGI [55]: > 50 µM | GI50 [7]: > 50 µM | TGI [7]: > 50 µM | GI50 [56]: > 50 µM | TGI [56]: > 50 µM | GI50 [8]: > 50 µM | TGI [8]: > 50 µM | GI50 [9]: > 50 µM | TGI [9]: > 50 µM | GI50 [10]: > 50 µM | TGI [10]: > 50 µM | GI50 [11]: > 50 µM | TGI [11]: > 50 µM | GI50 [12]: > 50 µM | TGI [12]: > 50 µM | GI50 [13]: 26.9 µM | TGI [13]: > 50 µM | GI50 [14]: > 50 µM | TGI [14]: > 50 µM | GI50 [15]: > 50 µM | TGI [15]: > 50 µM | GI50 [16]: > 50 µM | TGI [16]: > 50 µM | GI50 [57]: > 50 µM | TGI [57]: > 50 µM | GI50 [19]: > 50 µM | TGI [19]: > 50 µM | GI50 [20]: > 50 µM | TGI [20]: > 50 µM | GI50 [21]: > 50 µM | TGI [21]: > 50 µM | GI50 [22]: > 50 µM | TGI [22]: > 50 µM | GI50 [23]: 33.3 µM | TGI [23]: > 50 µM | GI50 [58]: > 50 µM | TGI [58]: > 50 µM | GI50 [24]: > 50 µM | TGI [24]: > 50 µM | GI50 [25]: 26 µM | TGI [25]: > 50 µM | GI50 [26]: > 50 µM | TGI [26]: > 50 µM | GI50 [27]: 7.12 µM | TGI [27]: > 50 µM | GI50 [28]: > 50 µM | TGI [28]: > 50 µM | GI50 [30]: > 50 µM | TGI [30]: > 50 µM | GI50 [31]: > 50 µM | TGI [31]: > 50 µM | GI50 [32]: > 50 µM | TGI [32]: > 50 µM | GI50 [33]: 46.6 µM | TGI [33]: > 50 µM | GI50 [35]: > 50 µM | TGI [35]: > 50 µM | GI50 [36]: > 50 µM | TGI [36]: > 50 µM | GI50 [37]: > 50 µM | TGI [37]: > 50 µM | GI50 [38]: > 50 µM | TGI [38]: > 50 µM | GI50 [39]: > 50 µM | TGI [39]: > 50 µM | GI50 [40]: > 50 µM | TGI [40]: > 50 µM | GI50 [41]: > 50 µM | TGI [41]: > 50 µM | GI50 [42]: 14.5 µM | TGI [42]: > 50 µM | GI50 [43]: > 50 µM | TGI [43]: > 50 µM | GI50 [44]: > 50 µM | TGI [44]: > 50 µM | GI50 [45]: 12.7 µM | TGI [45]: 33.5 µM | GI50 [46]: > 50 µM | TGI [46]: > 50 µM | GI50 [47]: > 50 µM | TGI [47]: > 50 µM | GI50 [48]: > 50 µM | TGI [48]: > 50 µM | GI50 [49]: > 50 µM | TGI [49]: > 50 µM | GI50 [50]: > 50 µM | TGI [50]: > 50 µM | GI50 [51]: > 50 µM | TGI [51]: > 50 µM | GI50 [52]: 35.9 µM | TGI [52]: > 50 µM

OCC1O[C@H](O[C@@H]2CCCN3CC(O)C(O)[C@@H]23)C(O)C(O)C1O (stereo partly specified)
TGI [1]: > 100 µM | TGI [2]: > 100 µM | TGI [53]: > 100 µM | TGI [54]: > 100 µM | TGI [6]: > 100 µM | TGI [7]: > 100 µM | TGI [56]: > 100 µM | TGI [8]: > 100 µM | TGI [9]: > 100 µM | TGI [10]: > 100 µM | TGI [11]: > 100 µM | TGI [12]: > 100 µM | TGI [59]: > 100 µM | TGI [13]: > 100 µM | TGI [14]: > 100 µM | TGI [15]: > 100 µM | TGI [16]: > 100 µM | TGI [57]: > 100 µM | TGI [18]: > 100 µM | TGI [19]: > 100 µM | TGI [20]: > 100 µM | TGI [21]: > 100 µM | TGI [22]: > 100 µM | TGI [23]: > 100 µM | TGI [58]: > 100 µM | TGI [25]: > 100 µM | TGI [26]: > 100 µM | TGI [27]: > 100 µM | TGI [28]: > 100 µM | TGI [29]: > 100 µM | TGI [30]: > 100 µM | TGI [31]: > 100 µM | TGI [32]: > 100 µM | TGI [33]: > 100 µM | TGI [35]: > 100 µM | TGI [36]: > 100 µM | TGI [37]: > 100 µM | TGI [38]: > 100 µM | TGI [39]: > 100 µM | TGI [40]: > 100 µM | TGI [41]: > 100 µM | TGI [42]: > 100 µM | TGI [43]: > 100 µM | TGI [44]: > 100 µM | TGI [45]: > 100 µM | TGI [46]: > 100 µM | TGI [47]: > 100 µM | TGI [49]: > 100 µM | TGI [50]: > 100 µM | TGI [51]: > 100 µM | TGI [52]: > 100 µM
